Measured values taken from patent US20260240976A1, “T[…] VACCINES BASED ON VALIDATED TARGET EPITOPES” (Deutsches Krebsforschungszentrum Stiftung des öffentlichen …, priority 2023, published 2026).

Test system: short-term antigen-specific T cell lines generated from PBMCs
Assay: Interferon-γ ELISpot assay on short-term antigen-specific T cell lines; for ELISpot: Immungenicity of the peptide shown by IFN-gamma ELISPOT analysis: key: +: ELISPOT: Immungenicity of the peptide shown by IFN-gamma ELISPOT analysis; +*: *highlights data from published resources; *highlights data from published resources
Type: cell-based, human
Conditions: for rates of immunoactivation in PBMC samples, CD8 T cell responses and/or numbers of HPV16 positive cell lines presenting the peptide as HLA-complexes: comparison among the peptides in Table 1

In the case of “51 (TLHEYMLDLQP; Human papillomavirus 16) [compound 51]”, the “ELISpot: Immungenicity of the peptide shown by IFN-gamma ELISPOT analysis” value (“ELISpot: Immungenicity” below) (HLA restriction A02) is reported as “+”.
For “147 (AGQAEPDRAHY; Human papillomavirus 16) [compound 147]”, the “ELISpot: Immungenicity” value (HLA restriction B15) was “+”.
With “80 (VYCKQQLL; Human papillomavirus 16) [compound 80]” the “rates of immunoactivation in PBMC samples, CD8 T cell responses and/or numbers of HPV16 positive cell lines presenting the peptide as HLA-complexes” value (“rates of immunoactivation” below) was “highest rates of immunoactivation in PBMC samples, to induce the strongest CD8 T cell responses, and/or shown to be presented as HLA-complexes by the highest numbers of HPV16 positive cell lines”.
“122 (CLKFYSKISEY; Human papillomavirus 16) [compound 122]” was tested, and the “ELISpot: Immungenicity” value (HLA restriction B15) was “+”.
For “68 (YAVCDKCLKFY; Human papillomavirus 16) [compound 68]”, the “ELISpot: Immungenicity” value (HLA restriction A11) was “+”.
“78 (KQRFHNIRGR; Human papillomavirus 16) [compound 78]” was tested, and the “ELISpot: Immungenicity” value (HLA restriction A03) was “+”.
For “125 (SKISEYRHY; Human papillomavirus 16) [compound 125]”, the “ELISpot: Immungenicity” value (HLA restriction B15) was “+”.
For “12 (TLHEYMLDL; Human papillomavirus 16) [compound 12]”, the “ELISpot: Immungenicity” value (HLA restriction B15) was “+”.
In the case of “127 (QQYNKPLCDL; Human papillomavirus 16) [compound 127]”, the “ELISpot: Immungenicity” value (HLA restriction B15) is reported as “+”.
In the case of “2 (HGDTPTLHEY; Human papillomavirus 16) [compound 2]”, the “rates of immunoactivation” value is reported as “highest rates of immunoactivation in PBMC samples, to induce the strongest CD8 T cell responses, and/or shown to be presented as HLA-complexes by the highest numbers of HPV16 positive cell lines”.
With “126 (SEYRHYCY; Human papillomavirus 16) [compound 126]” the “ELISpot: Immungenicity” value (HLA restriction B15) was “+”.
For “111 (QQLLRREVY; Human papillomavirus 16) [compound 111]”, the “ELISpot: Immungenicity” value (HLA restriction B15) was “+”.
In the case of “9 (SEYRHYCYSLY; Human papillomavirus 16) [compound 9]”, the “ELISpot: Immungenicity” value (HLA restriction A01) is reported as “+” and the “ELISpot: Immungenicity” value (HLA restriction B15) is reported as “+”.
“134 (IHEIILECVY; Human papillomavirus 16) [compound 134]” was tested, and the “ELISpot: Immungenicity” value (HLA restriction A01) was “+”.
With “18 (RTLEDLLMGT; Human papillomavirus 16) [compound 18]” the “rates of immunoactivation” value was “highest rates of immunoactivation in PBMC samples, to induce the strongest CD8 T cell responses, and/or shown to be presented as HLA-complexes by the highest numbers of HPV16 positive cell lines”.
For “121 (AVCDKCLKF; Human papillomavirus 16) [compound 121]”, the “ELISpot: Immungenicity” value (HLA restriction B15) was “+”.
With “118 (LLRREVYDFAF; Human papillomavirus 16) [compound 118]” the “ELISpot: Immungenicity” value (HLA restriction B15) was “+”.
For “69 (AVCDKCLK; Human papillomavirus 16) [compound 69]”, the “ELISpot: Immungenicity” value (HLA restriction A03) was “+”.
With “47 (KLPQLCTELQT; Human papillomavirus 16) [compound 47]” the “ELISpot: Immungenicity” value (HLA restriction A02) was “+”.
For “145 (KISEYRHY; Human papillomavirus 16) [compound 145]”, the “ELISpot: Immungenicity” value (HLA restriction B15) was “+”.
“98 (TPTLHEYML; Human papillomavirus 16) [compound 98]” was tested, and the “rates of immunoactivation” value was “highest rates of immunoactivation in PBMC samples, to induce the strongest CD8 T cell responses, and/or shown to be presented as HLA-complexes by the highest numbers of HPV16 positive cell lines”.
In the case of “123 (FYSKISEY; Human papillomavirus 16) [compound 123]”, the “ELISpot: Immungenicity” value (HLA restriction B15) is reported as “+”.
In the case of “10 (ETTDLYCY; Human papillomavirus 16) [compound 10]”, the “ELISpot: Immungenicity” value (HLA restriction A01) is reported as “+”.
For “104 (RPRKLPQLCT; Human papillomavirus 16) [compound 104]”, the “ELISpot: Immungenicity” value (HLA restriction B07) was “+”.
In the case of “138 (HYNIVTFC; Human papillomavirus 16) [compound 138]”, the “ELISpot: Immungenicity” value (HLA restriction A24) is reported as “+”.
In the case of “81 (RAHYNIVTF; Human papillomavirus 16) [compound 81]”, the “ELISpot: Immungenicity” value (HLA restriction B15) is reported as “+” and the “rates of immunoactivation” value is reported as “highest rates of immunoactivation in PBMC samples, to induce the strongest CD8 T cell responses, and/or shown to be presented as HLA-complexes by the highest numbers of HPV16 positive cell lines”.
In the case of “130 (KQRFHNIRGRW; Human papillomavirus 16) [compound 130]”, the “ELISpot: Immungenicity” value (HLA restriction B15) is reported as “+”.
“146 (RGRWTGRCM; Human papillomavirus 16) [compound 146]” was tested, and the “ELISpot: Immungenicity” value (HLA restriction B15) was “+”.
“71 (KFYSKISEY; Human papillomavirus 16) [compound 71]” was tested, and the “ELISpot: Immungenicity” value (HLA restriction A03) was “+” and the “ELISpot: Immungenicity” value (HLA restriction A24) was “+”.
For “13 (YMLDLQPET; Human papillomavirus 16) [compound 13]”, the “rates of immunoactivation” value was “highest rates of immunoactivation in PBMC samples, to induce the strongest CD8 T cell responses, and/or shown to be presented as HLA-complexes by the highest numbers of HPV16 positive cell lines”.
For “106 (RCMSCCRSSR; Human papillomavirus 16) [compound 106]”, the “ELISpot: Immungenicity” value (HLA restriction B07) was “+”.
In the case of “93 (YSLYGTTL; Human papillomavirus 16) [compound 93]”, the “ELISpot: Immungenicity” value (HLA restriction A24) is reported as “+”.
For “79 (LGIVCPICSQK; Human papillomavirus 16) [compound 79]”, the “ELISpot: Immungenicity” value (HLA restriction A11) was “+”.
“143 (LPQLCTELQT; Human papillomavirus 16) [compound 143]” was tested, and the “ELISpot: Immungenicity” value (HLA restriction B07) was “+”.
In the case of “120 (IVYRDGNPYAV; Human papillomavirus 16) [compound 120]”, the “ELISpot: Immungenicity” value (HLA restriction B15) is reported as “+”.
With “131 (GQAEPDRAH; Human papillomavirus 16) [compound 131]” the “ELISpot: Immungenicity” value (HLA restriction B15) was “+”.
In the case of “124 (YSKISEYRHY; Human papillomavirus 16) [compound 124]”, the “ELISpot: Immungenicity” value (HLA restriction B15) is reported as “+”.
In the case of “54 (TTLEQQYNK; Human papillomavirus 16) [compound 54]”, the “ELISpot: Immungenicity” value (HLA restriction A03) is reported as “+” and the “rates of immunoactivation” value is reported as “highest rates of immunoactivation in PBMC samples, to induce the strongest CD8 T cell responses, and/or shown to be presented as HLA-complexes by the highest numbers of HPV16 positive cell lines”.
For “132 (TTDLYCYEQL; Human papillomavirus 16) [compound 132]”, the “ELISpot: Immungenicity” value (HLA restriction A01) was “+”.
In the case of “53 (CVYCKQQLLR; Human papillomavirus 16) [compound 53]”, the “ELISpot: Immungenicity” value (HLA restriction A03) is reported as “+” and the “rates of immunoactivation” value is reported as “highest rates of immunoactivation in PBMC samples, to induce the strongest CD8 T cell responses, and/or shown to be presented as HLA-complexes by the highest numbers of HPV16 positive cell lines”.
In the case of “8 (SKISEYRHYCY; Human papillomavirus 16) [compound 8]”, the “ELISpot: Immungenicity” value (HLA restriction A01) is reported as “+”.
With “48 (ELQTTIHDI; Human papillomavirus 16) [compound 48]” the “ELISpot: Immungenicity” value (HLA restriction A02) was “+”.
In the case of “95 (DKKQRFHN; Human papillomavirus 16) [compound 95]”, the “ELISpot: Immungenicity” value (HLA restriction A24) is reported as “+”.
“82 (EYRHYCYSL; Human papillomavirus 16) [compound 82]” was tested, and the “rates of immunoactivation” value was “highest rates of immunoactivation in PBMC samples, to induce the strongest CD8 T cell responses, and/or shown to be presented as HLA-complexes by the highest numbers of HPV16 positive cell lines”.
“11 (TIHDIILECV; Human papillomavirus 16) [compound 11]” was tested, and the “rates of immunoactivation” value was “highest rates of immunoactivation in PBMC samples, to induce the strongest CD8 T cell responses, and/or shown to be presented as HLA-complexes by the highest numbers of HPV16 positive cell lines”.
For “136 (GTTLEQQYNK; Human papillomavirus 16) [compound 136]”, the “ELISpot: Immungenicity” value (HLA restriction A03) was “+”.
“128 (CQKPLCPEE; Human papillomavirus 16) [compound 128]” was tested, and the “ELISpot: Immungenicity” value (HLA restriction B15) was “+”.
With “142 (CPDEKQRHL; Human papillomavirus 16) [compound 142]” the “ELISpot: Immungenicity” value (HLA restriction B07) was “+”.
For “76 (LIRCINCQK; Human papillomavirus 16) [compound 76]”, the “ELISpot: Immungenicity” value (HLA restriction A03) was “+”.
“72 (KFYSKISEYR; Human papillomavirus 16) [compound 72]” was tested, and the “ELISpot: Immungenicity” value (HLA restriction A03) was “+”.
For “94 (HLDKKQRFHNI; Human papillomavirus 16) [compound 94]”, the “ELISpot: Immungenicity” value (HLA restriction A24) was “+”.
“148 (FYSKISEY; Human papillomavirus 16) [compound 148]” was tested, and the “ELISpot: Immungenicity” value (HLA restriction B15) was “+”.
“133 (SEYRHYCY; Human papillomavirus 16) [compound 133]” was tested, and the “ELISpot: Immungenicity” value (HLA restriction A01) was “+”.
